Source: US11076597B2, “High stress resistant plant growth regulator and preparation method and use thereof” (SHANGHAI INSTITUTES FOR BIOLOGICAL SCIENCES, CHINESE …, priority 2015, dated 2021)
“Also recorded” adds a separate entry of the source. Read-outs that look alike come from different tables or passages of the source.

Assays:
[1] = molecular target: T1, PYL2 receptor-HAB1 complex (Arabidopsis thaliana, UniProt O80992); assay: HAB1 phosphatase activity assay (SnRK2.6 phosphorylated polypeptide as substrate); assay type: biochemical; conditions: FIG. 1a-1g; 100 nM HAB1, 500 nM PYL2
T1 construct: made in house; host or cells: E. coli BL21 (DE3)
T1 sequence (O80992 14-188): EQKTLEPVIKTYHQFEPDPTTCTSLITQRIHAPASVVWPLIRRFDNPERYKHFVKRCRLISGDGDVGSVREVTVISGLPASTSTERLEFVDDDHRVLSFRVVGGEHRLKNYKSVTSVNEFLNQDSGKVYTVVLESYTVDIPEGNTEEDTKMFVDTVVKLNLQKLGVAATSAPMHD
T1 sequence (Q9CAJ0 172-511 partner limits assumed): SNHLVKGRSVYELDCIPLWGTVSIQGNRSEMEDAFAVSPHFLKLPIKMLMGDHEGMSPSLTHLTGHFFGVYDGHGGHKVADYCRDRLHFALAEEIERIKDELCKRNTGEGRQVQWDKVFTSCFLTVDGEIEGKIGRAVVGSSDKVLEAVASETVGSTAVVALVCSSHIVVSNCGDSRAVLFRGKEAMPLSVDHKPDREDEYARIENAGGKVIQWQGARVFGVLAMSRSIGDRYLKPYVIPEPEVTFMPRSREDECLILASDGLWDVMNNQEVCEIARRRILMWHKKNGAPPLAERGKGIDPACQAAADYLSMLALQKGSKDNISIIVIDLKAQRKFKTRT
Method: 50 mM imidazole, pH 7.2, 5 mM MgCl2, 0.1% β-mercaptoethanol, 0.5 μg·ml^−1 BSA, 100 nM HAB1 protein with a Biotin tag sequence, 500 nM PYL2 receptor protein with 6×His-SUMO dual tag sequence and the corresponding concentration of (+)-ABA/0224/0304/0706/0708/0713/0715/1028c/0428/1022B/NC0F4 were contained in the reaction system. The reaction system was incubated at room temperature for 30 minutes, followed by a further reaction for 30 minutes after adding an 11-amino acid phosphorylated polypeptide as a substrate. The phosphorylated polypeptide is amino acid 170-180 of SnRK2.6 protein kinase, wherein phosphorylated serine at position 175 (with a sequence of HSQPKpSTVGTP, purchased from Kingsley Company) was a known HAB1 dephosphorylation target site. After 30 minutes, chromogenic reagent (purchased from BioVision) was added and the absorbance at 650 nm was read on a microplate reader (Molecular Devices).

[2] = molecular target: T2, PYL7 receptor-HAB1 protein phosphatase complex (Arabidopsis thaliana, UniProt Q1ECF1); assay: AlphaScreen assay: promotion of PYL7 receptor binding to PP2C protein phosphatase HAB1
T2 construct: made in house; host or cells: E. coli BL21 (DE3)
T2 sequence (Q1ECF1 1-211): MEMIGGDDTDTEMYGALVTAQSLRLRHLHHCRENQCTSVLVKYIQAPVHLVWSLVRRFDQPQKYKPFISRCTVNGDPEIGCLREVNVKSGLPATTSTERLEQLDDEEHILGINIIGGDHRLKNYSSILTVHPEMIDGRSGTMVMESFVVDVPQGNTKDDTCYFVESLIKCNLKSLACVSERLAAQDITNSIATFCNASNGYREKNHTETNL
T2 sequence (Q9CAJ0 172-511 partner limits assumed): T1 sequence (Q9CAJ0 172-511 partner limits assumed)
Description: The construction method of recombinant plasmids for the Arabidopsis thaliana genes PYL1 (amino acid sequence 36-211), PYL2 (amino acid sequence 14-188) with dual tags of 6×His and SUMO sequence and the Arabidopsis thaliana gene HAB1 (amino acid sequence 172-511) with the Biotin tag sequence is described in detail in “A gate-latch-lock mechanism for hormone signaling by abscisic acid receptors” (Nature, Vol 462, 2009). The construction method of recombinant plasmids for PYR1 and PYL7 (whole gene coding sequence) and Soybean GmPYL6 and rice OsPYL2 with dual tags of 6×His and SUMO sequence is the same as that for Arabidopsis PYL2.
The above recombinant plasmid is transformed into competent cell of E. coli BL21 (DE3) (purchased from NEB company), and inoculated into 200 ml of LB liquid medium containing Amp resistance (purchased from OXOID company) and cultured overnight at 37° C. at 200 rpm; and inoculated into 2 L of LB liquid medium containing Amp resistance at a ratio of 1:50-1:100 for an extended culture, and cultured at 37° C., 200 rpm for 3-4 hours, and at a low temperature of 16° C. until OD600 is about 0.8-1.0. Recombinant plasmids for PYR1/PYL1/PYL2/PYL7/GmPYL6/OsPYL2 with dual tags of 6×His and SUMO sequence were induced overnight with 100 μM of IPTG while HAB1 recombinant plasmid with the Biotin tag sequence was induced simultaneously with 100 μM of IPTG and 40 μM of biotin.
After 16 hours of induction, the bacterial solution was centrifuged at 4000 rpm for 20 minutes at 4° C. in a low-speed high-capacity centrifuge, and the bacteria cells were collected. Bacteria cells were resuspended in 50 ml of extraction buffer (containing 20 mM Tris, pH 8.0, 200 mM NaCl and 10% (v/v) glycerol) for per 2 L of bacterial solution and then subjected to pressure-breaking at […] and 4° C. for 3-5 times. The broken cells were subjected to ultracentrifugation, centrifuged at 16000 rpm for 30 minutes, and this process was repeated twice. The supernatant was collected and subjected to an affinity chromatography column. […]

[3] = FIG. 2d, 6×His-SUMO-tagged PYL7 (whole coding sequence), Biotin-tagged HAB1 (aa 172-511), 100 nM each, pH 7.4, 1.5 h room temperature, read-out: EC50

| EC50 [2, 3] | SMILES | inhibition of HAB1 protein phosphatase activity by promoting binding between PYL2 receptor and HAB1 [1] | EC50 [2] |
| --- | --- | --- | --- |
| – | CCCN1C(=O)OCc2cc(NS(=O)(=O)Cc3c(F)c(F)c(C)c(F)c3F)ccc21 [Compound 0428] | inhibiting the activity of protein phosphatase HAB1; also recorded: inhibiting the dephosphorylation effect of HAB1 on SnRK2.6 phosphorylated polypeptide | – |
| – | Cc1c(F)c(F)c(CS(=O)(=O)Nc2ccc3c(c2)C(C)OC(=O)N3CCCF)c(F)c1F (centres unmarked) [Compound 0715] | inhibiting the activity of protein phosphatase HAB1; also recorded: inhibiting the dephosphorylation effect of HAB1 on SnRK2.6 phosphorylated polypeptide | – |
| – | CC1=CC(=O)CC(C)(C)[C@@]1(O)/C=C/C(C)=C\C(=O)O [ABA, Abscisic Acid, reference compound] | – | 1160 nM |
| – | CCN1C(=O)OC(C)c2cc(NS(=O)(=O)Cc3c(F)c(F)c(C)c(F)c3F)ccc21 (centres unmarked) [Compound 0706] | inhibiting the activity of protein phosphatase HAB1; also recorded: inhibiting the dephosphorylation effect of HAB1 on SnRK2.6 phosphorylated polypeptide | – |
| 120 nM | CCCN1C(=O)OC(C)(C)c2cc(NS(=O)(=O)Cc3c(F)c(F)c(C)c(F)c3F)ccc21 [Compound 0304] | inhibiting the activity of protein phosphatase HAB1; also recorded: inhibiting the dephosphorylation effect of HAB1 on SnRK2.6 phosphorylated polypeptide | – |
| 120 nM | CCCN1C(=O)OC(C)c2cc(NS(=O)(=O)Cc3c(F)c(F)c(C)c(F)c3F)ccc21 (centres unmarked) [Compound 0224] | inhibiting the activity of protein phosphatase HAB1; also recorded: inhibiting the dephosphorylation effect of HAB1 on SnRK2.6 phosphorylated polypeptide | – |
